{"source": "patent US20110151033A1", "about": "“ORTHOSIPHON STAMINEUS EXTRACTS FOR USE AS A COGNITION ENHANCER” (BIOTROPICS MALAYSIA BHD, priority 2009, published 2011)", "data": [{"test_system": "mature adult rat", "assay": "Social Recognition Test (SRT), in vivo", "conditions": "3 mg/kg, same administration regime", "procedure": "The method, which detects memory enhancing activity, follows that described by Lemaire et al. (Psychopharmacology, 115, 435-440, 1994). An unfamiliar juvenile rat was introduced into the individual home cage of a mature adult rat for 5 minutes. Following this first contact (C1), the juvenile was returned to its isolation cage, until a second contact of 5 minutes with the same mature adult rat (C2), 120 minutes later was allowed.\nThe time the adult rat spended investigating (sniffing, grooming, licking, closely following) the juvenile at each contact was recorded. A recognition index (=C2/C1) was calculated. Under such conditions, a mature adult rat fails to recognize the juvenile as familiar, as indicated by an absence of reduction in the duration of social investigatory behaviour at C2.\n12 rats were studied per group (in total 3 groups, vehicle, test compound, positive control). The test was performed blind. The test compound (e.g. the extract according example 3) was evaluated at a dose of 1 g/kg administered p.o. immediately after Cl (i.e. 120 minutes before C2), and compared with a vehicle control group. The test substance was dispersed in 4% Cremophor El, (polyoxyethylated castor oil, BASF, Ludwigshafen, Germany) in physiological saline which served as the vehicle. […] Data were analyzed by comparing treated groups with appropriate control using unpaired Student's t tests. […]", "units": {"effect of the positive control (presumably on the Recognition Index)": "%"}, "values": [{"smiles": "COc1cc2c(cc1OC)C(=O)C(CC1CCN(Cc3ccccc3)CC1)C2", "note": "(stereo not drawn) [Donepezil]", "effect of the positive control (presumably on the Recognition Index)": "−28"}]}, {"molecular_target": "T1, ADORA2A (Homo sapiens, UniProt P29274)", "T1 construct": "host or cells: HEK-293", "assay": "ADORA2A in vitro receptor assay, [3H]CGS-21680 radioligand binding", "conditions": "human recombinant HEK-293 cells, 0.05 μM [3H] CGS-21680", "procedure": "The methods employed in this study have been adapted from the scientific literature (Varani K, Gessi S, Dalpiaz A, Borea P A (1996) Br. J. Pharmacol. 117, 1693 Pharmacological and biochemical characterization of purified A2A adenosine receptors in human platelet membranes by [3H]CGS-21680 binding) to maximize reliability and reproducibility. Reference standards are run as an integral part of each assay to ensure the validity of the results obtained. Assays are performed under conditions described below. (assay number 200610, Ricerca Biosciences, LLC, Taipei, Taiwan). • Source: Human recombinant HEK-293 cells • Ligand: 0.05 μM [3H]", "units": {"inhibition at 10 µM": "%"}, "values": [{"smiles": "C=C[C@@]1(C)C[C@@H](OC(=O)c2ccccc2)[C@H]2[C@](O)(C1=O)[C@H](OC(C)=O)C[C@H]1C(C)(C)[C@H](O)[C@H](OC(C)=O)[C@H](OC(=O)c3ccccc3)[C@@]12C", "note": "[[4], Orthosiphol A]", "inhibition at 10 µM": 42}, {"smiles": "C=C[C@@]1(C)CC(=O)[C@H]2[C@](O)(C1=O)[C@H](OC(C)=O)C[C@H]1C(C)(C)[C@H](OC(=O)c3ccccc3)[C@H](OC(C)=O)[C@H](OC(=O)c3ccccc3)[C@@]12C", "note": "[[6], Orthosiphonone A]", "inhibition at 10 µM": 42}, {"smiles": "C=CC1C(OC(=O)c2ccccc2)C2C(O)(C(=O)C1(C)O)C(OC(C)=O)CC1C(C)(C)C(OC(C)=O)C(OC(C)=O)C(OC(=O)c3ccccc3)C12C", "note": "(stereo not drawn) [[8], Staminol A]", "inhibition at 10 µM": 42}, {"smiles": "C=C[C@@]1(C)C[C@@H](OC(=O)c2ccccc2)[C@@H]2[C@@]3(C)C=C(OC(C)=O)C(=O)C(C)(C)[C@@H]3C[C@@H](OC(C)=O)[C@@]2(O)C1=O", "note": "[[5], Orthosiphol D]", "inhibition at 10 µM": 52}, {"smiles": "C=CC1C(OC(=O)c2ccccc2)C2C(O)(C(=O)C1(C)O)C(OC(C)=O)CC1C(C)(C)C(O)C(OC(C)=O)C(OC(=O)c3ccccc3)C12C", "note": "(stereo not drawn) [[7], Neoorthosiphol A]", "inhibition at 10 µM": 64}]}]}
